Consider 31 molecules from EP4385980A1, “INDAZOLES AS INHIBITORS OF NAV1.8” (Grünenthal GmbH, priority 2022, dated 2024).

In the assay the target is T1, human NaV1.8 (Homo sapiens, UniProt Q9Y5Y9).
T1 construct: expressed in transfected cells; host or cells: HEK
The experiment in a line: Electrophysiology: voltage-clamp recordings (whole-cell automated patch clamp, Qube384). Particulars: HEK-NaV1.8 with b3 recombinant cell line, ambient room temperature, read-out: Potency category (human NaV1.8 IC50). Type of assay: cell-based. As to the method:
The following NaV1.8 recombinant cell line was used for recordings: HEK-NaV1.8 (NM_006514.1) with b3 (NM_018400.3).
Sodium currents were measured using the patch clamp technique in the whole-cell configuration using the Qube384 (Sophion A/S, Copenhagen, Denmark) automated voltage clamp platform. "Multi hole" plates were used for the cell line expressing NaV1.8 while "single hole" plates were used for the recombinant cell lines expressing the other subtypes. Appropriate filters (for minimum seal resistance and minimum current size) and series resistance compensation (for high quality sodium channel recordings) were applied. Data was collected at ambient room temperature.
The recording […] solution contained (in mM): NaCl 145 mM, KCl 4 mM, CaCl2 2 mM, MgCl2 1 mM, HEPES 10 mM, Glucose 10 mM, pH 7.4 (NaOH). The […] recording solution contained (in mM): CsF 120 mM, CsCl 20 mM, NaCl 10 mM, EGTA 10 mM, HEPES 10 mM, pH 7.2 (CsOH). Currents were recorded at 25 kHz sampling frequency and filtered at 5 kHz. Series resistance compensation was applied at 65%.
Vehicle (VEH) is the control condition where cells are exposed to 0.3 % DMSO without compound. All runs include VEH controls being exposed to the same voltage protocols to assess non-compound related phenomena such as run down and then used to isolate compound dependent effects on currents.
To check for state-dependence inhibition, the following voltage-sequence was applied every 20 seconds: From a resting membrane potential of-120 mV, the first test pulse (P1; 20 ms to -10 mV) was applied to check for channels in the Resting State followed by a brief recovery (20 ms to -120 mV), then holding the membrane voltage to V1/2 (4 seconds at voltage to obtain half the channel at Rest and half Inactivated) with a subsequent second test pulse (P2; 20 ms to -10 mV) to check for channels in the Inactivated State, followed by another brief recovery (20 ms to -120 mV) and a final third test pulse (P3; 20 ms to -10 mV) to check for recovered channels.
To check for frequency-dependent inhibition, a 10 Hz protocol and a 20 Hz protocol were applied; namely,
From a resting membrane potential of -120 mV, 40-pulses (10 ms to -10 mV) was applied at 10 Hz (at 100 ms between pulses) and then at 20 Hz (at 50 ms between pulses).
Each parameter was recorded (P1, P2, P3, P40 from 10Hz and P40 from 20Hz) during a control period (lasting ~ 5 minutes) when establishing the baseline and during compound period (lasting ~ 12 minutes) when test compound (or vehicle) was applied. For each parameter, the value at the end of the compound period was normalized to the vehicle baseline; as follows Normalized Inhibition (NormCPD) = (CPD Valueend CPD period)/(VEH Valueend Control Period) [formula]
To adjust for any variance in the Na^+ current signal during the compound period (owing to cumulative inactivation independent of compound or shifts in biophysics over time), a dedicated segment of the recording wells in each 384 plate were dedicated to having only vehicle exposure. These vehicle-only recordings were used to correct for any apparent "run-up" or "run-down" in the experiment. Normalized Inhibition (NormVEH) = (VEH Valueend CPD period)/(VEH Valueend Control Period) [formula]
The adjusted inhibition was calculated as follows: % Inhibitioncorrected = 100 × (NormCPD −NormVEH)/(100−NormVEH) [formula]
Percent inhibition was determined and IC50 values were calculated using a 4 parameter logistic model within XLFit Software (IDBS, Boston MA): % Inhibitioncorrected = A + ((B−A))/((1 + (((x)/(C)))^D) [formula] where A and B are the maximal and minimum inhibition respectively, C is the IC50 concentration and D is the (Hill) slope.
On the technique in general: The patch-clamp technique gives a direct electrical read-out from membranes.

T1 sequence (Q9Y5Y9 whole entry): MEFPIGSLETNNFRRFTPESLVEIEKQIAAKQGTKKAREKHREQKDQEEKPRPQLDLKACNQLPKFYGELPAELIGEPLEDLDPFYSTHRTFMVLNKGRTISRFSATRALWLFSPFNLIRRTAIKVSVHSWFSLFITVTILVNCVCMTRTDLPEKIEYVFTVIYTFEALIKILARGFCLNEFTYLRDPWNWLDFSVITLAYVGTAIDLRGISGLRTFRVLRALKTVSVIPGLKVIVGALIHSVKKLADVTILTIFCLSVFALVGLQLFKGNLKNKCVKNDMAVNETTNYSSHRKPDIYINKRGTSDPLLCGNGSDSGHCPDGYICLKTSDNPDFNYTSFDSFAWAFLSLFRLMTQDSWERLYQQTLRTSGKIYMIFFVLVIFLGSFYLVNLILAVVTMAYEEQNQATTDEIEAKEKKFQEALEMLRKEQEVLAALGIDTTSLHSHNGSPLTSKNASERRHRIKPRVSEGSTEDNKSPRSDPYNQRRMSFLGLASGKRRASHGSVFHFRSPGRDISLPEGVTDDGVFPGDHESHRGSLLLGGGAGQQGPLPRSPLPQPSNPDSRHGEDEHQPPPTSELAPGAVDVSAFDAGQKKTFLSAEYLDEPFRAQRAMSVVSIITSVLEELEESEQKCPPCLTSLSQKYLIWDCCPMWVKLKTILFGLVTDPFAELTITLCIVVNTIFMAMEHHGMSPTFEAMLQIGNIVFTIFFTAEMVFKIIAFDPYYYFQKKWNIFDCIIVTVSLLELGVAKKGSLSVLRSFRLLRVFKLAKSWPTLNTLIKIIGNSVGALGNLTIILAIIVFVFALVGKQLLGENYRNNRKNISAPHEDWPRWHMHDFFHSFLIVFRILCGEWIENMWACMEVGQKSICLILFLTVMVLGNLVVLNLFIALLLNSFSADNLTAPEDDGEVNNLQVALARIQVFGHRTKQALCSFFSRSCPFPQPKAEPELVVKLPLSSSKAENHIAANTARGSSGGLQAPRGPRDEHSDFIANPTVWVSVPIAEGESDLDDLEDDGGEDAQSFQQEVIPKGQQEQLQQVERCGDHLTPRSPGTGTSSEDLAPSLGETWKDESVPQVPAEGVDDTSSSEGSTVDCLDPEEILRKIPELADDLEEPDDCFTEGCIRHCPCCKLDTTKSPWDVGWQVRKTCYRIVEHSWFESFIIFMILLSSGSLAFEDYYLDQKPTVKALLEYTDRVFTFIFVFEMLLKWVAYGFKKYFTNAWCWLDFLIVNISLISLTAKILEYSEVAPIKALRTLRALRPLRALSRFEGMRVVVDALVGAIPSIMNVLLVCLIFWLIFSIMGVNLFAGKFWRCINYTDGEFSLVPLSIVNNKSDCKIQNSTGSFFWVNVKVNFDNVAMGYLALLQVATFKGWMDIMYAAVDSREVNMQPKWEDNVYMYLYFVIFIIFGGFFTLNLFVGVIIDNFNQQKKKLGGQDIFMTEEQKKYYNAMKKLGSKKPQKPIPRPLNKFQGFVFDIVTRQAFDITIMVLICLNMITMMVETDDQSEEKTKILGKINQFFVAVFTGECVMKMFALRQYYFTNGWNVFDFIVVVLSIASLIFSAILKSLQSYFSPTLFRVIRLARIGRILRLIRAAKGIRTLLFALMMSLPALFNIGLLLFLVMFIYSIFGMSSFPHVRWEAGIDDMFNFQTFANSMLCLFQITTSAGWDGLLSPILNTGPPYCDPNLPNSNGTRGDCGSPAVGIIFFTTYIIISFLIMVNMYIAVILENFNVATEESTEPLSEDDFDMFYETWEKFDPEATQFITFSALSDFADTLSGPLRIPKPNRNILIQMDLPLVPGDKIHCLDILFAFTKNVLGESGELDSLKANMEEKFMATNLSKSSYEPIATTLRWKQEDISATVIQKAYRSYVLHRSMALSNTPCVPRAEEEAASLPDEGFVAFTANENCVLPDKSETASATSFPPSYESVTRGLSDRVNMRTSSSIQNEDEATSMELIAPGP
T1 sequence (Q9NY72 23-215 partner): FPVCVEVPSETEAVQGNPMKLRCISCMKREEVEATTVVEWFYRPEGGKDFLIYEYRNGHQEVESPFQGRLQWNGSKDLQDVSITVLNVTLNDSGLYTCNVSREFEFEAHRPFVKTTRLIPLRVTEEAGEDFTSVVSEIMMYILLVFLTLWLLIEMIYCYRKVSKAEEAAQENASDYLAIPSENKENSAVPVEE

As a reminder, the IC50 is the midpoint of a concentration-inhibition curve. As for `NS(=O)(=O)c1cccc(NC(=O)c2c3ccccc3nn2CC2CCCO2)c1` (racemic) [SC-16, N-(3-sulfamoylphenyl)-2-((tetrahydrofuran-2-yl)methyl)-2H-indazole-3-carboxamide], the IC50 was 1 to 10 µM.

For the molecule `C[C@@H](C1CCCCC1)n1nc2ccccc2c1C(=O)Nc1cccc(S(C)(=O)=O)c1` (single isomer, unassigned) [SC-74a], the IC50 was in the range of 0.1 to 1 µM. The same measure for `C[C@H](C1CCCCC1)n1nc2ccccc2c1C(=O)Nc1cccc(S(C)(=O)=O)c1` (single isomer, unassigned) [SC-74b]: 1 to 10 µM. The same measure for `Cc1ccc(Cl)c2c(C(=O)Nc3ccnc(C(N)=O)c3)n(CC3CCC(F)(F)C3)nc12` (single isomer, unassigned) [SC-82a, N-(2-carbamoylpyridin-4-yl)-4-chloro-2-((3,3-difluorocyclopentyl)methyl)-7-methyl-2H-indazole-3-carboxamide]: at most 0.1 µM; for `Cc1ccc(Cl)c2c(C(=O)Nc3ccnc(C(N)=O)c3)n(CC3CCC(F)(F)C3)nc12` (single isomer, unassigned) [SC-82b, N-(2-carbamoylpyridin-4-yl)-4-chloro-2-((3,3-difluorocyclopentyl)methyl)-7-methyl-2H-indazole-3-carboxamide]: at most 0.1 µM; for `Cc1ccc(Cl)c2c(C(=O)Nc3cccc(S(N)(=O)=O)c3)n(CC3CCCCO3)nc12` (single isomer, unassigned) [SC-84a, 4-chloro-7-methyl-N-(3-sulfamoylphenyl)-2-((tetrahydro-2H-pyran-2-yl)methyl)-2H-indazole-3-carboxamide]: at most 0.1 µM. For the molecule `Cc1cccc2c(C(=O)Nc3ccnc(S(N)(=O)=O)c3)n(C[C@H]3CCCCO3)nc12` (single isomer, unassigned) [SC-88b], the IC50 is at most 0.1 µM. As to `O=C(Nc1ccnc(O)c1)c1c2ccc(F)cc2nn1CC1CCCCC1` [SC-05, 2-(cyclohexylmethyl)-6-fluoro-N-(2-hydroxypyridin-4-yl)indazole-3-carboxamide], the IC50 is at most 0.1 µM. In the case of `O=C(Nc1ccnc(O)c1)c1c2ccc(F)cc2nn1CC1CCC(F)(F)CC1` [SC-06, 2-((4,4-difluorocyclohexyl)methyl)-6-fluoro-N-(2-hydroxypyridin-4-yl)-2H-indazole-3-carboxamide], the IC50 lay in the range of 0.1 to 1 µM. The same measure for `O=C(Nc1ccnc(O)c1)c1c2ccccc2nn1CC1CCCCC1` [SC-10, 2-(cyclohexylmethyl)-N-(2-hydroxypyridin-4-yl)-2H-indazole-3-carboxamide]: 0.1 to 1 µM; for `CS(=O)(=O)c1cccc(NC(=O)c2c3ccc(F)cc3nn2CC2CCCCC2)c1` [SC-11, 2-(cyclohexylmethyl)-6-fluoro-N-(3-methylsulfonylphenyl)indazole-3-carboxamide]: at most 0.1 µM. As for `O=C(Nc1cc[nH]c(=O)c1)c1c2ccccc2nn1CC1CCC1` [SC-12, 2-(cyclobutylmethyl)-N-(2-oxo-1,2-dihydropyridin-4-yl)-2H-indazole-3-carboxamide], the IC50 lay in the range of 1 to 10 µM.

`O=C(Nc1ccnc(O)c1)c1c2ccccc2nn1CC1CCCCCC1` [SC-13, 2-(cyclohcptylmethyl)-N-(2-hydroxypyridin-4-yl)indazole-3-carboxamide]: the IC50 fell in the range of 0.1 to 1 µM. Consider `CS(=O)(=O)c1cccc(NC(=O)c2c3ccccc3nn2CC2CCOCC2)c1` [SC-14, N-(3-methylsulfonylphenyl)-2-(oxan-4-ylmethyl)indazole-3-carboxamide], for which the 50% inhibitory concentration (IC50) is 1 to 10 µM. With `NS(=O)(=O)c1cccc(NC(=O)c2c3ccccc3nn2CC2CCOCC2)c1` [SC-15, N-(3-sulfamoylphenyl)-2-((tetrahydro-2H-pyran-4-yl)methyl)-2H-indazole-3-carboxamide] the figure was 0.1 to 1 µM. `NC(=O)c1cccc(NC(=O)c2c3ccccc3nn2CC2CCCCC2)c1` [SC-17, N-(3-carbamoylphenyl)-2-(cyclohexylmethyl)indazole-3-carboxamide]: the IC50 was at most 0.1 µM. With `C[S+]([O-])c1cccc(NC(=O)c2c3ccc(F)cc3nn2CC2CCCCC2)c1` (stereo not shown) [SC-19, 2-(cyclohexylmethyl)-6-fluoro-N-(3-(methylsulfinyl)phenyl)-2H-indazole-3-carboxamide] the figure was 0.1 to 1 µM; with `O=C(Nc1ccnc(O)c1)c1c2cccc(F)c2nn1CC1CCCCC1` [SC-20, 2-(cyclohexylmethyl)-7-fluoro-N-(2-hydroxypyridin-4-yl)indazole-3-carboxamide], 0.1 to 1 µM. The same measure for `NC(=O)c1cc(NC(=O)c2c3ccccc3nn2CC2CCOCC2)ccc1F` [SC-21, N-(3-Carbamoyl-4-fluorophenyl)-2-((tetrahydro-2H-pyran-4-yl)methyl)-2H-indazole-3-carboxamide]: 1 to 10 µM; for `CS(=O)(=O)c1cccc(NC(=O)c2c3ccccc3nn2CC2CCC(F)(F)CC2)c1` [SC-22, 2-[(4,4-difluorocyclohexyl)methyl]-N-(3-methylsulfonylphenyl)indazole-3-carboxamide]: 0.1 to 1 µM; for `O=C(Nc1ccnc(O)c1)c1c2ccccc2nn1CC1CCC(F)(F)CC1` [SC-24, 2-[(4,4-difluorocyclohexyl)methyl]-N-(2-hydroxypyridin-4-yl)indazole-3-carboxamide]: 1 to 10 µM. Turning to `NC(=O)c1cc(NC(=O)c2c3ccccc3nn2CC2CCC(F)(F)CC2)ccc1F` [SC-25, N-(3-carbamoyl-4-fluorophenyl)-2-[(4,4-difluorocyclohexyl)methyl]indazole-3-carboxamide], the IC50 is 0.1 to 1 µM. For `CC(C)(O)c1cccc(NC(=O)c2c3ccccc3nn2CC2CCCCC2)c1` [SC-26, 2-(cyclohexylmethyl)-N-(3-(2-hydroxypropan-2-yl)phenyl)-2H-indazole-3-carboxamide], the IC50 fell in the range of 1 to 10 µM.

Regarding `NS(=O)(=O)c1cccc(NC(=O)c2c3ccc(F)cc3nn2CC2CCCCC2)c1` [SC-28, 2-(cyclohexylmethyl)-6-fluoro-N-(3-sulfamoylphenyl)indazole-3-carboxamide], the IC50 is at most 0.1 µM. As to `O=C(Nc1ccnc(O)c1)c1c2cc(F)ccc2nn1CC1CCCCC1` [SC-32, 2-(cyclohexylmethyl)-5-fluoro-N-(2-hydroxypyridin-4-yl)indazole-3-carboxamide], the IC50 is 0.1 to 1 µM.

Take `CS(=O)(=O)n1cc(NC(=O)c2c3ccccc3nn2CC2CCCCC2)cn1` [SC-36, 2-(cyclohexylmethyl)-N-(1-(methylsulfonyl)-1H-pyrazol-4-yl)-2H-indazole-3-carboxamide]: the IC50 was 0.1 to 1 µM.

Turning to `CS(=O)(=O)c1cccc(NC(=O)c2c3ccccc3nn2CC2CCCCC2)c1` [SC-37, 2-(cyclohexylmethyl)-N-(3-methylsulfonylphenyl)indazole-3-carboxamide], the half-maximal inhibitory concentration (IC50) is at most 0.1 µM. The same measure for `NS(=O)(=O)c1cccc(NC(=O)c2c3ccc(F)cc3nn2CC2CCC(F)(F)CC2)c1` [SC-38, 2-[(4,4-difluorocyclohexyl)methyl]-6-fluoro-N-(3-sulfamoylphenyl)indazole-3-carboxamide]: at most 0.1 µM. The same measure for `Cn1ccc(NC(=O)c2c3ccccc3nn2CC2CCCCC2)cc1=O` [SC-39, 2-(cyclohexylmethyl)-N-(1-methyl-2-oxo-1,2-dihydropyridin-4-yl)-2H-indazole-3-carboxamide]: 1 to 10 µM; for `O=C(Nc1ccnc(O)c1)c1c2cccc(C(F)(F)F)c2nn1CC1CCCCC1` [SC-42, 2-(cyclohexylmethyl)-N-(2-hydroxypyridin-4-yl)-7-(trifluoromethyl)indazole-3-carboxamide]: at most 0.1 µM.

For `Cc1cccc2c(C(=O)Nc3cc[nH]c(=O)c3)n(CC3CCCCC3)nc12` [SC-43, 2-(cyclohexylmethyl)-7-methyl-N-(2-oxo-1,2-dihydropyridin-4-yl)-2H-indazole-3-carboxamide], the IC50 is at most 0.1 µM.
